Read-outs that look alike come from different tables or passages of the source.
Experiments:
[1] = target: T1, human CB1 receptor (Homo sapiens, UniProt P21554); test: CB1 radioligand competitive binding assay ([3H]CP 55,940 displacement); settings: for Selectivity CB1: fold difference between CB1 and CB2 binding, printed in column of receptor with higher affinity, 1.00 in both = same affinity
T1 construct: host or cells: CHO-K1 (Chinese hamster ovary) cells, stably transfected; membranes prepared in house

[2] = target: T2, human CB2 receptor (Homo sapiens, UniProt P34972); test: CB2 radioligand competitive binding assay ([3H]CP 55,940 displacement); settings: for Selectivity CB2: fold difference between CB1 and CB2 binding, printed in column of receptor with higher affinity, 1.00 in both = same affinity
T2 construct: host or cells: CHO-K1 (Chinese hamster ovary) cells, stably transfected; membranes prepared in house

[3] = [3H]CP 55,940 displacement, membranes of CHO-K1 cells expressing human CB1 receptor, read-out: CB1 IC50
[4] = [3H]CP 55,940 displacement, membranes of CHO-K1 cells expressing human CB2 receptor, read-out: CB2 IC50

T1 sequence (P21554 whole entry): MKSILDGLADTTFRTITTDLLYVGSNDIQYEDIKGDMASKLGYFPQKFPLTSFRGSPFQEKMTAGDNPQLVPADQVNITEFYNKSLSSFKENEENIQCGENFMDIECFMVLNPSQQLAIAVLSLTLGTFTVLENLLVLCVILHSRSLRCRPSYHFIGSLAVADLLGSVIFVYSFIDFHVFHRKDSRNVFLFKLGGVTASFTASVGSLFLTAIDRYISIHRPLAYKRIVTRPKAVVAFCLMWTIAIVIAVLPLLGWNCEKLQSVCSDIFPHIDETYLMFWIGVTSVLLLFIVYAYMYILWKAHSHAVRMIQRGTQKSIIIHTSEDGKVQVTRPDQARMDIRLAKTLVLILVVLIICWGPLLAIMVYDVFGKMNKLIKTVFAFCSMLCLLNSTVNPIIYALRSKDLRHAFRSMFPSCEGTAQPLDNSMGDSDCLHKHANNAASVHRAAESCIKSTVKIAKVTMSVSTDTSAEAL
T2 sequence (P34972 whole entry): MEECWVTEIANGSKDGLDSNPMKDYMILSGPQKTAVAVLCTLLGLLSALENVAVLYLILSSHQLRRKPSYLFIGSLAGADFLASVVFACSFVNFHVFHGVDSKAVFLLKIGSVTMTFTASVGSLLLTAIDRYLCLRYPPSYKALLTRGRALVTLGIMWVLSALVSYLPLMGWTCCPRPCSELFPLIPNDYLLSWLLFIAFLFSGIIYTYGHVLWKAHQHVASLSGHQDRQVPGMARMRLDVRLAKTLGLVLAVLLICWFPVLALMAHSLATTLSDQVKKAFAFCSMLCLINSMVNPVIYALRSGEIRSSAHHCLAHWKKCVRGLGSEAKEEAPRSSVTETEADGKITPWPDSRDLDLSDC

SMILES	IC50 [1, 3]	IC50 [2, 4]	Selectivity CB2 [2]	IC50 [1]	IC50 [2]	Selectivity CB1 [1]
CCCCCc1cc(OCOCCOC)c(-c2cccc(C)c2)c(OCOCCOC)c1 [2′a, 2,6-bis((2-methoxyethoxy)methoxy)-3′-methyl-4-pentyl-1,1′-biphenyl]	> 10000 nM	50 to 990 nM	19.73	–	–	–
C=C(C)C1CCC(C)=CC1c1c(O)cc(C(C)(C)CCCCCC)cc1OCN(C(=O)OC)c1ccccc1 (centres unmarked) [Compound 20d, methyl (((6-hydroxy-5′-methyl-4-(2-methyloctan-2-yl)-2′-(prop-1-en-2-yl)-1′,2′,3′,4′-tetrahydro-[1,1′-biphenyl]-2-yl)oxy)methyl)(phenyl)carbamate]	1000 to 9990 nM	50 to 990 nM	1.94	–	–	–
C=C(C)[C@@H]1CCC(C)=C[C@H]1c1c(O)cc(CCCCC)cc1OCOC(=O)OCC [Compound 5d, ethyl (((6-hydroxy-5′-methyl-4-pentyl-2′-(prop-1-en-2-yl)-1′,2′,3′,4′-tetrahydro-[1,1′-biphenyl]-2-yl)oxy)methyl) carbonate]	–	–	2.00	1000 to 9990 nM	1000 to 9990 nM	–
CCCCCc1cc(O)c(C2C=C(C)CCC2)c(OCOC(=O)OCC)c1 (centres unmarked) [Compound 5c, ethyl (((6-hydroxy-5′-methyl-4-pentyl-1′,2′,3′,4′-tetrahydro-[1,1′-biphenyl]-2-yl)oxy)methyl) carbonate]	1000 to 9990 nM	50 to 990 nM	9.09	–	–	–
CCCCCc1cc(OCOCCOC)c(C2C=C(C)CCC2)c(OCOCCOC)c1 (centres unmarked) [2′c, 2′,6′-bis((2-methoxyethoxy)methoxy)-5-methyl-4′-pentyl-1,2,3,4-tetarhydro-1,1′-biphenyl]	50 to 990 nM	< 50 nM	6.38	–	–	–
C=C(C)C1CCC(C)=CC1c1c(O)cc(C(C)(C)CCCCCC)cc1OCOCC (centres unmarked) [Compound 19d, 6-(ethoxymethoxy)-5′-methyl-4-(2-methyloctan-2-yl)-2′-(prop-1-en-2-yl)-1′,2′,3′,4′-tetrahydro-[1,1′-biphenyl]-2-ol]	50 to 990 nM	50 to 990 nM	1.83	–	–	–
C=C(C)C1CCC(C)=CC1c1c(O)cc(C(C)(C)CCCCCC)cc1OCOC(=O)C(C)(C)C (centres unmarked) [Compound 21d, ((6-hydroxy-5′-methyl-4-(2-methyloctan-2-yl)-2′-(prop-1-en-2-yl)-1′,2′,3′,4′-tetrahydro-[1,1′-biphenyl]-2-yl)oxy)methyl pivalate]	1000 to 9990 nM	1000 to 9990 nM	1.25	–	–	–
CCCCCc1cc(O)c(-c2cccc(C)c2)c(OCOC(=O)C(C)(C)C)c1 [Compound 8a, [3-hydroxy-2-(m-tolyl)-5-pentyl-phenoxy]methyl 2,2-dimethylpropanoate]	50 to 990 nM	< 50 nM	9.39	–	–	–
CCCCCc1cc(OCOCC)c(C2C=C(C)CCC2)c(OCOCC)c1 (centres unmarked) [17′c, 2′,6′-bis(ethoxymethoxy)-5-methyl-4′-pentyl-1,2,3,4-tetrahydro-1,1′-biphenyl]	1000 to 9990 nM	–	–	–	–	–
CCCCCc1cc(O)c(C2C=C(C)CCC2)c(OCN(C(=O)OC)c2ccccc2)c1 (centres unmarked) [Compound 14c, methyl (((6-hydroxy-5′-methyl-4-pentyl-1′,2′,3′,4′-tetrahydro-[1,1′-biphenyl]-2-yl)oxy)methyl)(phenyl)carbamate]	1000 to 9990 nM	1000 to 9990 nM	–	–	–	1.36
C=C(C)C1CCC(C)=CC1c1c(O)cc(CCCCC)cc1OCOC(=O)C(C)(C)C (centres unmarked) [Compound 8d, ((6-hydroxy-5′-methyl-4-pentyl-2′-(prop-1-en-2-yl)-1′,2′,3′,4′-tetrahydro-[1,1′-biphenyl]-2-yl)oxy)methyl pivalate]	50 to 990 nM	50 to 990 nM	1.76	–	–	–
CCCCCc1cc(O)c(-c2cccc(C)c2)c(OCN(C(=O)OC)c2ccccc2)c1 [Compound 14a, methyl (((6-hydroxy-3′-methyl-4-pentyl-[1,1′-biphenyl]-2-yl)oxy)methyl)(phenyl)carbamate]	1000 to 9990 nM	50 to 990 nM	9.84	–	–	–
C=C(C)[C@@H]1CCC(C)=C[C@H]1c1c(O)cc(CCC)cc1OCOC(=O)OCC [Compound 24d, ethyl (((6-hydroxy-5′-methyl-2′-(prop-1-en-2-yl)-4-propyl-1′,2′,3′,4′-tetrahydro-[1,1′-biphenyl]-2-yl)oxy)methyl) carbonate]	1000 to 9990 nM	50 to 990 nM	1.52	–	–	–
C=C(C)C1CCC(C)=CC1c1c(OCOCC)cc(CCCCC)cc1OCOCC (centres unmarked) [17′d, 2′,6′-bis(ethoxymethoxy)-5-methyl-4′-pentyl-2-(prop-1-en-2-yl)-1,2,3,4-tetrahydro-1,1′-biphenyl]	1000 to 9990 nM	50 to 990 nM	3.03	–	–	–
C=C(C)C1CCC(C)=CC1c1c(O)cc(CCCCC)cc1OCOCC (centres unmarked) [Compound 17d, 6-(ethoxymethoxy)-5′-methyl-4-pentyl-2′-(prop-1-en-2-yl)-1′,2′,3′,4′-tetrahydro-[1,1′-biphenyl]-2-ol]	1000 to 9990 nM	50 to 990 nM	1.53	–	–	–
CCCCCc1cc(OCN(C(=O)OC)c2ccccc2)c(-c2cccc(C)c2)c(OCN(C(=O)OC)c2ccccc2)c1 [14′a, dimethyl (((3′-methyl-4-pentyl-[1,1′-biphenyl]-2,6-diyl)bis(oxy))bis(methylene))bis(phenylcarbamate)]	50 to 990 nM	50 to 990 nM	4.40	–	–	–
C=C(C)C1CCC(C)=CC1c1c(O)cc(CCCCC)cc1OCOC1CCCCC1 (centres unmarked) [Compound 18d, 6-((cyclohexyloxy)methoxy)-5′-methyl-4-pentyl-2′-(prop-1-en-2-yl)-1′,2′,3′,4′-tetrahydro-[1,1′-biphenyl]-2-ol]	1000 to 9990 nM	50 to 990 nM	3.23	–	–	–
C=C(C)C1CCC(C)=CC1c1c(OCN(C(=O)OC)c2ccccc2)cc(C(C)(C)CCCCCC)cc1OCN(C(=O)OC)c1ccccc1 (centres unmarked) [20′d, dimethyl (((5′-methyl-4-(2-methyloctan-2-yl)-2′-(prop-1-en-2-yl)-1′,2′,3′,4′-tetrahydro-[1,1′-biphenyl]-2,6-diyl)bis(oxy))bis(methylene))bis(phenylcarbamate)]	> 10000 nM	1000 to 9990 nM	1.25	–	–	–
C=C(C)[C@@H]1CCC(C)=C[C@H]1c1c(O)cc(CCC)cc1OCOC(=O)C(C)(C)C [Compound 23d, ((6-hydroxy-5′-methyl-2′-(prop-1-en-2-yl)-4-propyl-1′,2′,3′,4′-tetrahydro-[1,1′-biphenyl]-2-yl)oxy)methyl pivalate]	1000 to 9990 nM	1000 to 9990 nM	2.50	–	–	–
C=C(C)[C@@H]1CCC(C)=C[C@H]1c1c(O)cc(C(C)(C)CCCCCC)cc1OCOC(=O)OCC [Compound 22d, ethyl (((6-hydroxy-5′-methyl-4-(2-methyloctan-2-yl)-2′-(prop-1-en-2-yl)-1′,2′,3′,4′-tetrahydro-[1,1′-biphenyl]-2-yl)oxy)methyl) carbonate]	50 to 990 nM	< 50 nM	1.67	–	–	–
C=C(C)C1CCC(C)=CC1c1c(OCOC2CCCCC2)cc(CCCCC)cc1OCOC1CCCCC1 (centres unmarked) [18′d, 2′,6′-bis((cyclohexyloxy)methoxy)-5-methyl-4′-pentyl-2-(prop-1-en-2-yl)-1,2,3,4-tetrahydro-1,1′-biphenyl]	> 10000 nM	> 10000 nM	1.00	–	–	1.00
CCCCCc1cc(OCN(C(=O)OC)c2ccccc2)c(C2C=C(C)CCC2)c(OCN(C(=O)OC)c2ccccc2)c1 (centres unmarked) [14′c, dimethyl (((5′-methyl-4-pentyl-1′,2′,3′,4′-tetrahydro-[1,1′-biphenyl]-2,6-diyl)bis(oxy))bis(methylene))bis(phenylcarbamate)]	1000 to 9990 nM	50 to 990 nM	62.50	–	–	–
CCCCCc1cc(OCOC(=O)C(C)(C)C)c(C2C=C(C)CCC2)c(OCOC(=O)C(C)(C)C)c1 (centres unmarked) [8′c, ((5′-methyl-4-pentyl-1′,2′,3′,4′-tetrahydro-[1,1′-biphenyl]-2,6-diyl)bis(oxy))bis(methylene)bis(2,2-dimethylpropanoate)]	50 to 990 nM	< 50 nM	6.38	–	–	–
CCCCCc1cc(O)c(-c2cccc(C)c2)c(OCOCC)c1 [Compound 17a, 6-(ethoxymethoxy)-3′-methyl-4-pentyl-[1,1′-biphenyl]2-ol]	1000 to 9990 nM	1000 to 9990 nM	5.20	–	–	–
CCCCCc1cc(O)c(C2C=C(C)CCC2)c(OCOCCOC)c1 (centres unmarked) [Compound 2c, 6-((2-methoxyethoxy)methoxy)-5′-methyl-4-pentyl-1′,2′,3′,4′-tetrahydro-[1,1′-biphenyl]-2-ol]	1000 to 9990 nM	50 to 990 nM	13.33	–	–	–
C=C(C)C1CCC(C)=CC1c1c(OCOC(=O)C(C)(C)C)cc(C(C)(C)CCCCCC)cc1OCOC(=O)C(C)(C)C (centres unmarked) [21′d, ((5′-methyl-4-(2-methyloctan-2-yl)-2′-(prop-1-en-2-yl)-1′,2′,3′,4′-tetrahydro-[1,1′-biphenyl]-2,6-diyl)bis(oxy))bis(methylene) bis(2,2-dimethylpropanoate)]	> 10000 nM	1000 to 9990 nM	13.33	–	–	–
C=C(C)C1CCC(C)=CC1c1c(O)cc(CCCCC)cc1OCOCCOC (centres unmarked) [Compound 2d, 6-((2-methoxyethoxy)methoxy)-5′-methyl-4-pentyl-2′-(prop-1-en-2-yl)-1′,2′,3′,4′-tetrahydro-[1,1′-biphenyl]-2-ol]	1000 to 9990 nM	1000 to 9990 nM	1.59	–	–	–
CCCCCc1cc(O)c(-c2cccc(C)c2)c(OCOCCOC)c1 [Compound 2a, 6-((2-methoxyethoxy)methoxy)-3′-methyl-4-pentyl-[1,1′-biphenyl]-2-ol]	1000 to 9990 nM	50 to 990 nM	11.11	–	–	–
CCCCCc1cc(O)c(-c2cccc(C)c2)c(OCOC(=O)OCC)c1 [Compound 5a, ethyl [3-hydroxy-2-(m-tolyl)-5-pentyl-phenoxy]methyl carbonate]	–	–	7.89	1000 to 9990 nM	50 to 990 nM	–
